Data set [1] addresses Phosphatidylinositol 4,5-bisphosphate 3-kinase catalytic subunit alpha isoform (Homo sapiens, UniProt P42336).
Description: Inhibition of human PI3Kalpha expressed in Sf9 cells
Data set [2] deals with Serine/threonine-protein kinase mTOR (Homo sapiens, UniProt P42345).
Data set [3] in a line: in vitro. Conditions: human, liver microsomes.
Description: Clearance in human liver microsomes
The nature of data set [4]: in vitro. To be noted: rat, liver microsomes. (Microsomes from liver hold many membrane-bound enzymes, among them those of drug oxidation.)
Description: Clearance in rat liver microsomes

Some results are limits rather than exact numbers.

For 56 compounds, Ki, IC50 and microsomal CLint results are on record in ChEMBL document CHEMBL1773016, “Discovery and optimization of a series of benzothiazole phosphoinositide 3-kinase (PI3K)/mammalian target of rapamycin (mTOR) dual inhibitors” (J Med Chem, 2011).

Chain of Phosphatidylinositol 4,5-bisphosphate 3-kinase catalytic subunit alpha isoform (P42336 whole entry, canonical isoform): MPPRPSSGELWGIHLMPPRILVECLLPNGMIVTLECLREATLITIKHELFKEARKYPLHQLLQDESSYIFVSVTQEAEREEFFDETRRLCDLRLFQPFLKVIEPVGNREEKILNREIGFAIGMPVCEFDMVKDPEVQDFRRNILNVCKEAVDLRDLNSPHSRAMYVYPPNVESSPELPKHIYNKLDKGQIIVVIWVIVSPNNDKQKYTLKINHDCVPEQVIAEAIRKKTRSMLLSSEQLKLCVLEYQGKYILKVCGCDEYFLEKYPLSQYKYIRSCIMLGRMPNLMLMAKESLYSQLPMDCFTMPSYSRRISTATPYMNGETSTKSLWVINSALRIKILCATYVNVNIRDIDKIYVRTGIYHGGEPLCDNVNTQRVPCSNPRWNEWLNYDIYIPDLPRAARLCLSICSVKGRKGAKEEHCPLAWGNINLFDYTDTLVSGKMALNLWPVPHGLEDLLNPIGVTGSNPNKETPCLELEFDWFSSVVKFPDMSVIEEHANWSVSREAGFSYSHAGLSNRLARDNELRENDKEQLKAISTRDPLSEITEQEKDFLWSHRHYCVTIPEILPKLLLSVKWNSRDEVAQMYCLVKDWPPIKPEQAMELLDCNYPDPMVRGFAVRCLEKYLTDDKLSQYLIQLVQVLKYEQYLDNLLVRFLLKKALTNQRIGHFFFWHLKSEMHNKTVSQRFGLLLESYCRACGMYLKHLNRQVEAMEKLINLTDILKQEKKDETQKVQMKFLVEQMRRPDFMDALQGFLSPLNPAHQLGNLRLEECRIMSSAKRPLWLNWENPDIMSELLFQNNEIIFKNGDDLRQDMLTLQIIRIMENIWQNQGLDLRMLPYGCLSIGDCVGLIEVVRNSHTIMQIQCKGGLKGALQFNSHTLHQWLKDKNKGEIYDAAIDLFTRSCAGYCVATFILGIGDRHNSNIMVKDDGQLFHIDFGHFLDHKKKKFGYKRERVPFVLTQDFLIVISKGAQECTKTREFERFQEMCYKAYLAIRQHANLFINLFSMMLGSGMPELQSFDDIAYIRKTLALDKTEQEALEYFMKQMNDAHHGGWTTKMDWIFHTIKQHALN

`COc1cccc(COc2nccc(-c3ccc4nc(NC(C)=O)sc4c3)n2)c1` gave a Ki in data set [1] of 18 nM. Further, in data set [2], the 50% inhibitory concentration (IC50) is over 6000 nM.
In data set [2], `COc1ccc(S(=O)(=O)Nc2cc(-c3ccc4nc(NC(C)=O)sc4c3)ccn2)cc1` returned an IC50 of 29 nM.
For `COc1ccc(Sc2nccc(-c3ccc4nc(NC(C)=O)sc4c3)n2)cc1`, in data set [1], the Ki worked out at 18 nM. The compound further came in with an IC50 in data set [2] of 3010 nM.
Take `CC(=O)Nc1nc2ccc(-c3ccnc(OCc4cccc(F)c4)n3)cc2s1`: in data set [2], the IC50 is over 6000 nM.
Regarding `CC(=O)Nc1nc2ccc(-c3ccnc(OCc4cccc(C)c4)n3)cc2s1`, the affinity in data set [1], expressed as Ki, was 47 nM. The compound also registered an IC50 in data set [2] of over 6000 nM.
Take `CC(=O)Nc1nc2ccc(-c3ccnc(OCc4ccc(F)cc4)n3)cc2s1`: in data set [2], the IC50 was over 6000 nM.
Regarding `CC(=O)Nc1nc2ccc(-c3ccnc(OCc4ccc(C)cc4)n3)cc2s1`, the Ki in data set [1] was 58 nM. This compound also displayed an IC50 in data set [2] of over 6000 nM.
Taken in the same sequence, the figures for `COc1ccc(COc2nccc(-c3ccc4nc(NC(C)=O)sc4c3)n2)cc1` were 58 nM and over 6000 nM.
Taken in the same sequence, the figures for `CC(=O)Nc1nc2ccc(-c3ccnc(OCc4ccncc4)n3)cc2s1` were 128 nM and over 6000 nM.
The compound `CC(=O)Nc1nc2ccc(-c3ccnc(OCCCc4ccncc4)n3)cc2s1` gave a Ki in data set [1] of 114 nM. The 50% inhibitory concentration (IC50) in data set [2] is over 6000 nM.
For `CC(=O)Nc1nc2ccc(-c3ccnc(OCCCc4cccnc4)n3)cc2s1`, half-maximal inhibition in data set [2] (IC50) required 913 nM.
In the case of `CC(=O)Nc1nc2ccc(-c3ccnc(OCCCc4ccccc4)n3)cc2s1`, in data set [1], the Ki was 32 nM. This compound returned an IC50 in data set [2] of over 6000 nM.
Turning to `CC(=O)Nc1nc2ccc(-c3ccnc(OCCCN4CCOCC4)n3)cc2s1`, the half-inhibitory concentration (IC50) in data set [2] was over 6000 nM.
`CC(=O)Nc1nc2ccc(-c3ccnc(NC(C)(C)c4ccccc4)n3)cc2s1`: the IC50 in data set [2] was over 6000 nM.
For `COc1ccc(C(=O)Nc2nccc(-c3ccc4nc(NC(C)=O)sc4c3)n2)cc1`, the Ki in data set [1] stood at 3130 nM. In data set [2], the IC50 was over 6000 nM.
`COc1ccc(S(=O)(=O)Nc2nccc(-c3ccc4nc(NC(C)=O)sc4c3)n2)cc1`: in data set [2], the half-maximal inhibitory concentration (IC50) turned out to be 57 nM. That is a double-digit nanomolar value.
Compound `COc1ccc(S(=O)(=O)N(C)c2nccc(-c3ccc4nc(NC(C)=O)sc4c3)n2)cc1` showed a Ki in data set [1] of 76 nM. The compound also gave an IC50 in data set [2] of 285 nM. Besides, the microsomal CLint in “in vitro [3]” and in “in vitro [4]” was over 399 µL/min/mg in each case.
In turn, `CCN(c1nccc(-c2ccc3nc(NC(C)=O)sc3c2)n1)S(=O)(=O)c1ccc(OC)cc1` registered a Ki in data set [1] of 62 nM. The same compound came in with an IC50 in data set [2] of 262 nM.
Taken in the same sequence, the figures for `CC(=O)Nc1nc2ccc(-c3ccnc(NS(=O)(=O)c4ccccc4F)n3)cc2s1` were 41 nM and 45 nM.
Turning to `CC(=O)Nc1nc2ccc(-c3ccnc(N(C)S(=O)(=O)c4ccccc4F)n3)cc2s1`, in data set [2], the IC50 was over 6000 nM.
Compound `CC(=O)Nc1nc2ccc(-c3ccnc(NS(=O)(=O)c4cccc(F)c4)n3)cc2s1` returned a Ki in data set [1] of 84 nM. Inhibition in data set [2] was half-maximal at 47 nM (IC50).
Taken in the same sequence, the figures for `CC(=O)Nc1nc2ccc(-c3ccnc(NS(=O)(=O)c4ccc(F)cc4)n3)cc2s1` were 826 nM and 719 nM.
Taken in the same sequence, the figures for `CC(=O)Nc1nc2ccc(-c3ccnc(NS(=O)(=O)c4ccc(C)cc4)n3)cc2s1` were 82 nM and 65 nM.
`CC(=O)Nc1nc2ccc(-c3ccnc(N(C)S(=O)(=O)c4ccc(C)cc4)n3)cc2s1` registered an IC50 in data set [2] of 269 nM. Moreover, the microsomal CLint was 579 µL/min/mg in “in vitro [3]” and over 399 µL/min/mg in the data set “in vitro [4]”.
`CC(=O)Nc1nc2ccc(-c3ccnc(Sc4ccccc4)n3)cc2s1` yielded an IC50 in data set [2] of over 6000 nM.
Same read-out and setting: the value for `CC(=O)Nc1nc2ccc(-c3ccnc(SCc4ccccc4)n3)cc2s1` was over 6000 nM; that for `CC(=O)Nc1nc2ccc(-c3ccnc(Oc4ccccc4)n3)cc2s1` was over 6000 nM.
Turning to `CC(=O)Nc1nc2ccc(-c3ccnc(OCc4ccccc4)n3)cc2s1`, the affinity in data set [1] corresponds to a Ki of 105 nM. The IC50 in data set [2] was over 6000 nM.
In the same order, the values of `CC(=O)Nc1nc2ccc(-c3ccnc(NCc4ccccc4)n3)cc2s1` are 85 nM and over 6000 nM.
In the same order, the values of `CC(=O)Nc1nc2ccc(-c3ccnc(Cc4ccccc4)n3)cc2s1` are 605 nM and over 6000 nM.
In turn, `CC(=O)Nc1nc2ccc(-c3ccnc(CCc4ccccc4)n3)cc2s1` returned an IC50 in data set [2] of over 6000 nM.
The compound `CC(=O)Nc1nc2ccc(-c3ccnc(Sc4ccccc4F)n3)cc2s1` yielded a Ki in data set [1] of 46 nM. The compound also returned an IC50 in data set [2] of over 6000 nM.
Taken in the same sequence, the figures for `CC(=O)Nc1nc2ccc(-c3ccnc(Sc4cccc(F)c4)n3)cc2s1` were 31 nM and over 6000 nM.
In the same order, the values of `CC(=O)Nc1nc2ccc(-c3ccnc(Sc4ccc(F)cc4)n3)cc2s1` are 44 nM and over 6000 nM.
`CC(=O)Nc1nc2ccc(-c3ccnc(Sc4ccccc4C)n3)cc2s1` registered an IC50 in data set [2] of over 6000 nM.
Regarding `CC(=O)Nc1nc2ccc(-c3ccnc(Sc4cccc(C)c4)n3)cc2s1`, the affinity in data set [1], expressed as Ki, was 53 nM. In data set [2], the IC50 was over 6000 nM.
In the same order, the values of `CC(=O)Nc1nc2ccc(-c3ccnc(Sc4ccc(C)cc4)n3)cc2s1` are 59 nM and over 6000 nM.
With `COc1ccccc1Sc1nccc(-c2ccc3nc(NC(C)=O)sc3c2)n1`, the IC50 in data set [2] was over 6000 nM.
`COc1cccc(Sc2nccc(-c3ccc4nc(NC(C)=O)sc4c3)n2)c1`: the affinity in data set [1] corresponds to a Ki of 48 nM. Also, the IC50 in data set [2] was over 6000 nM.
Taken in the same sequence, the figures for `COc1ccc(S(=O)(=O)Nc2cncc(-c3ccc4nc(NC(C)=O)sc4c3)c2)cc1` were 1.6 nM and 11 nM.
Taken in the same sequence, the figures for `COc1ccc(S(=O)(=O)Nc2cncc(-c3ccc4nc(NC(C)=O)sc4c3)n2)cc1` were 9 nM and 15 nM.
The compound `COc1ccc(S(=O)(=O)Nc2cccc(-c3ccc4nc(NC(C)=O)sc4c3)c2)cc1` came in with a Ki in data set [1] of 48 nM. For the same compound, the IC50 in data set [2] is 1500 nM.
In the same order, the values of `COc1ccc(S(=O)(=O)Nc2cc(-c3ccc4nc(NC(C)=O)sc4c3)cnc2C#N)cc1` are 1.4 nM and 1.6 nM.
Taken in the same sequence, the figures for `COc1ccc(S(=O)(=O)Nc2cc(-c3ccc4nc(NC(C)=O)sc4c3)cnc2C)cc1` were 1.2 nM and 6 nM.
`COc1ccc(S(=O)(=O)Nc2cc(-c3ccc4nc(NC(C)=O)sc4c3)cnc2Cl)cc1`: in data set [1], the Ki was under 1 nM. The same compound yielded an IC50 in data set [2] of 2.1 nM. Also, the microsomal CLint in “in vitro [3]” is 42 µL/min/mg; in the data set “in vitro [4]”, over 399 µL/min/mg.
Consider `CC(=O)Nc1nc2ccc(-c3cnc(Cl)c(NS(=O)(=O)c4ccccc4)c3)cc2s1`, for which, in data set [2], the IC50 was under 1 nM. The values for the microsomal CLint in the data set “in vitro [3]” and in the data set “in vitro [4]” were under 14 µL/min/mg and over 399 µL/min/mg, respectively.
`CC(=O)Nc1nc2ccc(-c3cnc(Cl)c(NS(=O)(=O)c4ccccc4C(F)(F)F)c3)cc2s1` yielded a Ki in data set [1] of under 1 nM. In data set [2], this compound yielded an IC50 of under 1 nM. The microsomal CLint in “in vitro [3]” was under 14 µL/min/mg; in the data set “in vitro [4]”, 500 µL/min/mg.
In data set [1], `CC(=O)Nc1nc2ccc(-c3cnc(Cl)c(NS(=O)(=O)c4cccc(C(F)(F)F)c4)c3)cc2s1` registered a Ki of under 1 nM. In data set [2], this compound came in with an IC50 of under 1 nM. Also, the microsomal CLint in “in vitro [3]” was found to be 17 µL/min/mg; in “in vitro [4]” it was 36 µL/min/mg.
`CC(=O)Nc1nc2ccc(-c3cnc(Cl)c(NS(=O)(=O)c4ccc(C(F)(F)F)cc4)c3)cc2s1` gave a Ki in data set [1] of under 1 nM. The IC50 in data set [2] came out at 1.6 nM. Moreover, the microsomal CLint in “in vitro [3]” and in the data set “in vitro [4]” was under 14 µL/min/mg each time.
Regarding `CC(=O)Nc1nc2ccc(-c3cnc(Cl)c(NS(=O)(=O)c4ccccc4Cl)c3)cc2s1`, the Ki in data set [1] was under 1 nM. In data set [2], the IC50 was under 1 nM. For the same compound, the microsomal CLint in “in vitro [3]” was under 14 µL/min/mg; in “in vitro [4]”, over 399 µL/min/mg.
`CC(=O)Nc1nc2ccc(-c3cnc(Cl)c(NS(=O)(=O)c4cccc(Cl)c4)c3)cc2s1` displayed a Ki in data set [1] of under 1 nM. Further, in data set [2], the 50% inhibitory concentration (IC50) was under 1 nM. Further, the figures for the microsomal CLint in “in vitro [3]” and in the data set “in vitro [4]” were 16 µL/min/mg and over 399 µL/min/mg, respectively.
With `CC(=O)Nc1nc2ccc(-c3cnc(Cl)c(NS(=O)(=O)c4ccc(Cl)cc4)c3)cc2s1`, the Ki in data set [1] was under 1 nM. Besides, the IC50 in data set [2] was under 1 nM. The microsomal CLint in “in vitro [3]” and in the data set “in vitro [4]” was under 14 µL/min/mg in each case.
With `CC(=O)Nc1nc2ccc(-c3cnc(Cl)c(NS(=O)(=O)c4cccc(C(C)(C)C)c4)c3)cc2s1`, in data set [1], the Ki is under 1 nM. Moreover, the IC50 in data set [2] amounted to 2.1 nM. In addition, the microsomal CLint in the data set “in vitro [3]” amounted to 83 µL/min/mg; in the data set “in vitro [4]”, 610 µL/min/mg.
Take `CC(=O)Nc1nc2ccc(-c3cnc(Cl)c(NS(=O)(=O)c4ccc(C(C)(C)C)cc4)c3)cc2s1`: the Ki in data set [1] was under 1 nM. In data set [2], this compound had an IC50 of 2.1 nM. In addition, the microsomal CLint in “in vitro [3]” is 135 µL/min/mg; in “in vitro [4]” it was 460 µL/min/mg.
In turn, `CC(=O)Nc1nc2ccc(-c3cnc(Cl)c(NS(=O)(=O)c4ccccc4F)c3)cc2s1` yielded a Ki in data set [1] of under 1 nM. The IC50 in data set [2] is 1.1 nM. The microsomal CLint in “in vitro [3]” is under 14 µL/min/mg; in “in vitro [4]”, 320 µL/min/mg.
With `CC(=O)Nc1nc2ccc(-c3cnc(Cl)c(NS(=O)(=O)c4cccc(F)c4)c3)cc2s1`, affinity in data set [1] was put at a Ki of 1.1 nM. The compound also showed an IC50 in data set [2] of 2.3 nM. The results for the microsomal CLint in the data set “in vitro [3]” and in “in vitro [4]” were under 14 µL/min/mg and over 399 µL/min/mg, respectively.

The term Ki denotes a dissociation constant, usually derived from enzyme kinetics or from competition with a known ligand. A low value points to a stronger hold on the target. One may read the IC50 as the concentration that gives 50% inhibition. A higher IC50 goes with weaker potency in that assay. What is called microsomal CLint is the capacity of the preparation to metabolise the compound, expressed as a volume cleared per time.
